We go through 36 compounds from patent publication US9458110B2, “Phenylpyrazole derivatives as potent ROCK1 and ROCK2 inhibitors” (BRISTOL-MYERS SQUIBB COMPANY, priority 2013, dated 2016).

pIC50: −log10 of the molar value.

In general, pIC50 refers to the negative decadic logarithm of the IC50, by convention in mol/L. A lower pIC50 goes with a high IC50.

The target of one experiment is ROCK2 (Homo sapiens (Human), UniProt O75116). Nature of the experiment: ROCK assay (Caliper LABCHIP peptide phosphorylation), ROCK2.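 Note: reaction stopped with EDTA, then phosphorylated and unphosphorylated peptide resolved by microfluidic electrophoresis, kinase inhibition computed at each compound concentration in dose-response series, DMSO under 2%.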 It is filed as biochemical. Conditions: 5 μM ATP, 1.5 μM peptide substrate.
Sequence of ROCK2 (O75116 whole entry, species assumed): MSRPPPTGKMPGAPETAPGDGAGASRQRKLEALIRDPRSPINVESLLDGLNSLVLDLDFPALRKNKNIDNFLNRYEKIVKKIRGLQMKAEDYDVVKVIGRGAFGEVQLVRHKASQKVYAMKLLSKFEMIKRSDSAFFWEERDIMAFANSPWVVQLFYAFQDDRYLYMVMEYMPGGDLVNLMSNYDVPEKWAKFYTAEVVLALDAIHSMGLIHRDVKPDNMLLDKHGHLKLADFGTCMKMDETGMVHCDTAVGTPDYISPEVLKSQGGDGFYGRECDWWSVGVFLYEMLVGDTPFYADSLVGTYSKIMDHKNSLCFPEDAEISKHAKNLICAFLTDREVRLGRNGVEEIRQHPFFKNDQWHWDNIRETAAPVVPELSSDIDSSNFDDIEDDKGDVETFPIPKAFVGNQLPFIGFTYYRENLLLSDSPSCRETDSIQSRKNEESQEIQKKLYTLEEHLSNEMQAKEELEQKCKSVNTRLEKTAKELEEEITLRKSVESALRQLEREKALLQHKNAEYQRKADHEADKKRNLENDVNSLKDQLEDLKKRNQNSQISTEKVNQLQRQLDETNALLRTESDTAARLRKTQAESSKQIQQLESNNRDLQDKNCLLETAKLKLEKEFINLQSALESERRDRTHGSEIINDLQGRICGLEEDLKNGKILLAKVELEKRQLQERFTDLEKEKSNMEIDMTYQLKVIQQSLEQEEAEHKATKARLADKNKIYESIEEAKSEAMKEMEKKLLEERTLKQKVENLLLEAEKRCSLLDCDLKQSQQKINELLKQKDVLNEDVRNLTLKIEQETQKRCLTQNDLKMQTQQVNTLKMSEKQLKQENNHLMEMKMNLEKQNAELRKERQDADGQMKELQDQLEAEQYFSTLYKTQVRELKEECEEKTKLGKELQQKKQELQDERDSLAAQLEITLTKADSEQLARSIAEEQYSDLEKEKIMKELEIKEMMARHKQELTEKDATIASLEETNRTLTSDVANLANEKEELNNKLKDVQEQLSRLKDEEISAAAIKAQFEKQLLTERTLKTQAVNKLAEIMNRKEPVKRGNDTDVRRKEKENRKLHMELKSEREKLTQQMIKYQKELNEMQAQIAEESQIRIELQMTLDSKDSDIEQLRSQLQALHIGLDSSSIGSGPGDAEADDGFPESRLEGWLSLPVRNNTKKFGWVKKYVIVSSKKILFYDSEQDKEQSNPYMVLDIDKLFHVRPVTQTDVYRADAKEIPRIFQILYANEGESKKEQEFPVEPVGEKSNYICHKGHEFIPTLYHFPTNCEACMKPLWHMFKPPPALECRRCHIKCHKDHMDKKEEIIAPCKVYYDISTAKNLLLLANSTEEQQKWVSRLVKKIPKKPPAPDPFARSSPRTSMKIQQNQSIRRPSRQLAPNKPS
The target in the next experiment is ROCK1 (Homo sapiens (Human), UniProt Q13464). The experiment can be described thus: ROCK assay (Caliper LABCHIP peptide phosphorylation), ROCK1.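 Note: Read-out is separation of phosphorylated from unphosphorylated peptide, with kinase activity inhibition computed at every concentration of a dose-response series.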 The format is biochemical. Conditions: 5 μM ATP, 1.5 μM peptide substrate.
Sequence of ROCK1 (Q13464 whole entry, species assumed): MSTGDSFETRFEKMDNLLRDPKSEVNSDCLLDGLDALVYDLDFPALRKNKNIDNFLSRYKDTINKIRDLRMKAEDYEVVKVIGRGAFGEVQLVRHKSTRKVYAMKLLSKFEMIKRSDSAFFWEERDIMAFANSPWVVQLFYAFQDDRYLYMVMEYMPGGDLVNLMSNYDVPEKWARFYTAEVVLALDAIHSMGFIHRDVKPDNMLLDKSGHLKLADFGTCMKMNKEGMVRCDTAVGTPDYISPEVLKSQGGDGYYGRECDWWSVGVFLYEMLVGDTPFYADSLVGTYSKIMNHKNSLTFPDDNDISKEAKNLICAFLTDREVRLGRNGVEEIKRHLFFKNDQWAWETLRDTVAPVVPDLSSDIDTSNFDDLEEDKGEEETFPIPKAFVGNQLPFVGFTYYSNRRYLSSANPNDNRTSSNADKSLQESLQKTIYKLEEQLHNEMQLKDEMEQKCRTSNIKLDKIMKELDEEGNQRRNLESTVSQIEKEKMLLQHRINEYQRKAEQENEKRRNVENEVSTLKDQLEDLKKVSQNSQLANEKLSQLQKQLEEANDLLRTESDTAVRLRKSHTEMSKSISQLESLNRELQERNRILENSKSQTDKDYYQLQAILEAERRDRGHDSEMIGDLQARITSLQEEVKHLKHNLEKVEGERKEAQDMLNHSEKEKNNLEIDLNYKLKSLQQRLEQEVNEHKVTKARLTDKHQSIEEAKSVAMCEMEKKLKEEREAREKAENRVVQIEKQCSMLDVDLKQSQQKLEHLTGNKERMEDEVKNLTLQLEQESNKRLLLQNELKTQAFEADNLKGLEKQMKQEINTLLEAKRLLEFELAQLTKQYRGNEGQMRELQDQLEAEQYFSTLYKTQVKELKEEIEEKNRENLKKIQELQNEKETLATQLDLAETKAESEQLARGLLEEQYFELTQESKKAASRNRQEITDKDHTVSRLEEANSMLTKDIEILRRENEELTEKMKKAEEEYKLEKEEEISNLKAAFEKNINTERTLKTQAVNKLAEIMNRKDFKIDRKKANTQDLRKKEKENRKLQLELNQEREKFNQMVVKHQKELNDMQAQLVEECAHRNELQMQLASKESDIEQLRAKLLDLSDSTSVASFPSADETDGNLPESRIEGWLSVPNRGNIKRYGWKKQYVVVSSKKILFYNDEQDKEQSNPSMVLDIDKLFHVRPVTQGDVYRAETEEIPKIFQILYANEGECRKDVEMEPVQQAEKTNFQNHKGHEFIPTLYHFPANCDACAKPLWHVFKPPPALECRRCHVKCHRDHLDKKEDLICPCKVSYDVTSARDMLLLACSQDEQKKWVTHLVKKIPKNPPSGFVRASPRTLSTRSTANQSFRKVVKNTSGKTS

In the case of `Cc1cc(C(=O)N[C@H](CN(C)C)c2ccccc2)ccc1-c1cn[nH]c1` [Example 263, N-[(1S)-2-(Dimethylamino)-1-phenylethyl]-3-methyl-4-(1H-pyrazol-4-yl)benzamide], the pIC50 at ROCK2 was 8.40; on ROCK1, 8.19.

For the compound `COC(=O)c1cc(C(=O)N[C@H](C)c2ccc(F)cc2)ccc1-c1cn[nH]c1` [Example 295, (R)-Methyl 5-((1-(4-fluorophenyl)ethyl)carbamoyl)-2-(1H-pyrazol-4-yl)benzoate], the results for the pIC50 at ROCK2 and against ROCK1 were 6.25 and 5.77, respectively.

As to `COc1cc(-c2cn[nH]c2)ccc1C(=O)NCc1ccc(F)cc1Cl` [Example 210, N-[(2-chloro-4-fluorophenyl)methyl]-2-methoxy-4-(1H-pyrazol-4-yl)benzamide], the pIC50 against ROCK2 is 8.76; against ROCK1 it was 8.49.

In the case of `Cc1cc(C(=O)N[C@H](C)c2ccccc2)ccc1-c1cn[nH]c1` [Example 84, 3-Methyl-N-[(1R)-1-phenylethyl]-4-(1H-pyrazol-4-yl)benzamide], the pIC50 against ROCK2 was 8.45; against ROCK1, 7.96.

Regarding `COc1cc(C(=O)NCc2cc(Cl)ccc2Cl)ccc1-c1cn[nH]c1` [Example 76, N-(2,5-dichlorobenzyl)-3-methoxy-4-(1H-pyrazol-4-yl)benzamide], the figures for the pIC50 at ROCK2 and against ROCK1 were 8.66 and 8.11, respectively.

Take `COc1cc(C(=O)NCc2cccc(C(=O)N(C)C)c2)ccc1-c1cn[nH]c1` [Example 235, N-{[3-(dimethyl-carbamoyl)phenyl]methyl}-3-methoxy-4-(1H-pyrazol-4-yl)benzamide]: the pIC50 on ROCK2 is 7.03; on ROCK1, 6.30.

For `COc1cc(C(=O)NCc2ccc(Cl)cc2S(=O)(=O)CC(C)C)ccc1-c1cn[nH]c1` [Example 37, N-(4-chloro-2-(isobutyl-sulfonyl)benzyl)-3-methoxy-4-(1H-pyrazol-4-yl)benzamide], the pIC50 against ROCK2 was 5.85; against ROCK1 it was 5.61.

For `COC[C@@H](NC(=O)c1ccc(-c2cn[nH]c2)c(C(C)O)c1)c1ccccc1` (stereo partly drawn) [Example 277, 3-(1-hydroxyethyl)-N-[(1S)-2-methoxy-1-phenylethyl]-4-(1H-pyrazol-4-yl)benzamide], the values for the pIC50 at ROCK2 and against ROCK1 were 7.35 and 6.81, respectively.

As to `COc1cccc([C@@H](C)NC(=O)c2ccc(-c3cn[nH]c3)cc2Cl)c1` [Example 109, 2-chloro-N-[(1R)-1-(3-methoxyphenyl)ethyl]-4-(1H-pyrazol-4-yl)benzamide], the pIC50 is 6.84 against ROCK2 and 6.28 against ROCK1.

Regarding `COc1cc(C(=O)NCc2ccc3nc(N)sc3c2)ccc1-c1cn[nH]c1` [Example 77, N-((2-aminobenzo[d]thiazol-6-yl)methyl)-3-methoxy-4-(1H-pyrazol-4-yl)benzamide], the pIC50 against ROCK2 is 6.40; at ROCK1 it was 5.91.

As to `Cc1cc(C(=O)N[C@H](CC(=O)O)c2ccccc2)ccc1-c1cn[nH]c1` [Example 251, (3R)-3-{[3-Methyl-4-(1H-pyrazol-4-yl)phenyl]formamido}-3-phenylpropanoic acid], the pIC50 on ROCK2 was 7.47; against ROCK1, 7.34.

Turning to `COc1cc(C(=O)NCc2ccc3[nH]c(=O)[nH]c3c2)ccc1-c1cn[nH]c1` [Example 102, 3-methoxy-N-[(2-oxo-2,3-dihydro-1H-1,3-benzodiazol-5-yl)methyl]-4-(1H-pyrazol-4-yl)benzamide], the pIC50 is 6.18 against ROCK2 and 5.42 against ROCK1.

On to `CCC(O)c1cc(C(=O)N[C@H](C)c2ccccc2)ccc1-c1cn[nH]c1` (stereo partly drawn) [Example 286, 3-(1-hydroxypropyl)-N-[(1R)-1-phenylethyl]-4-(1H-pyrazol-4-yl)benzamide], for which the values for the pIC50 against ROCK2 and against ROCK1 were 6.72 and 7.01, respectively.

As for `O=C(NCc1ccccc1)c1ccc(-c2cn[nH]c2)cc1CCO` [Example 211, N-benzyl-2-(2-hydroxyethyl)-4-(1H-pyrazol-4-yl) benzamide], the values for the pIC50 against ROCK2 and at ROCK1 were 5.19 and 5.73, respectively.

For the compound `COCCOc1cc(-c2cn[nH]c2)ccc1C(=O)N[C@H](C)c1cccc(OC)c1` [Example 314, 2-(2-methoxyethoxy)-N-[(1R)-1-(3-methoxyphenyl)ethyl]-4-(1H-pyrazol-4-yl)benzamide], the pIC50 was 8.47 against ROCK2 and 7.77 on ROCK1.

Take `COc1cc(C(=O)NCc2cccc(C(=O)NC3(C)CC3)c2)ccc1-c1cn[nH]c1` [Example 83, 3-methoxy-N-(3-((1-methylcyclopropyl)carbamoyl)benzyl)-4-(1H-pyrazol-4-yl)benzamide]: the pIC50 against ROCK2 was 8.94; at ROCK1, 8.50.

As to `COc1cc(C(=O)NCc2cccc(-c3ccccc3)c2)ccc1-c1cn[nH]c1` [Example 18, N-([1,1′-biphenyl]-3-ylmethyl)-3-methoxy-4-(1H-pyrazol-4-yl)benzamide], the results for the pIC50 on ROCK2 and against ROCK1 were 6.89 and 6.48, respectively.

In the case of `COc1ccc(F)c(C(C)NC(=O)c2ccc(-c3cn[nH]c3)cc2OC)c1` (stereo not drawn) [Example 229, N-[1-(2-fluoro-5-methoxyphenyl)ethyl]-2-methoxy-4-(1H-pyrazol-4-yl)benzamide], the negative logarithm of the IC50 (pIC50) against ROCK2 is 7.12; against ROCK1, 6.74.

In the case of `CC(O)c1cc(C(=O)N[C@H](C)c2c(F)cccc2F)ccc1-c1cn[nH]c1` (stereo partly drawn) [Example 292, N-[(1R)-1-(2,6-difluorophenyl)ethyl]-3-(1-hydroxyethyl)-4-(1H-pyrazol-4-yl)benzamide], the pIC50 at ROCK2 was 5.82; against ROCK1, 5.94.

On to `COc1cc(C(=O)N(Cc2ccccc2F)CC(C)(C)O)ccc1-c1cn[nH]c1` [Example 298, N-(2-Fluorobenzyl)-N-(2-hydroxy-2-methylpropyl)-3-methoxy-4-(1H-pyrazol-4-yl)benzamide], for which the pIC50 is 6.18 against ROCK2 and 6.08 at ROCK1.

Regarding `COc1cc(C(=O)N[C@H]2C[C@@H]2c2ccccc2)ccc1-c1cn[nH]c1` (racemic) [Example 68, (+/−)-3-methoxy-N-(trans-2-phenyl-cyclopropyl)-4-(1H-pyrazol-4-yl)benzamide], the pIC50 against ROCK2 is 8.07; at ROCK1, 7.52.

On to `COc1cc(C(=O)NCCc2ccc(F)cc2)ccc1-c1cn[nH]c1` [Example 24, N-(4-fluorophenethyl)-3-methoxy-4-(1H-pyrazol-4-yl)benzamide], for which the pIC50 at ROCK2 is 7.81; on ROCK1 it was 7.43.

For “N-(4- chlorobenzyl)- 3-methoxy-4- (1H-pyrazol-4- yl)benzamide [Example 33]”, the pIC50 against ROCK2 is 8.31; against ROCK1 it was 7.58.

For `COc1ccc(F)c(C(C)NC(=O)c2ccc(-c3c[nH]nc3C)cc2OC)c1` (stereo not drawn) [Example 152, N-[1-(2-fluoro-5-methoxyphenyl)ethyl]-2-methoxy-4-(3-methyl-1H-pyrazol-4-yl)benzamide], the pIC50 against ROCK2 is 6.20; on ROCK1, 5.82.

For `COc1cc(C(=O)NCC(O)c2ccccc2Cl)ccc1-c1cn[nH]c1` (stereo not drawn) [Example 122, N-[2-(2-chlorophenyl)-2-hydroxyethyl]-3-methoxy-4-(1H-pyrazol-4-yl)benzamide], the pIC50 is 7.63 against ROCK2 and 7.45 on ROCK1.

As to `COc1cc(C(=O)NCc2ccccc2)ccc1-c1cn[nH]c1` [Example 27, N-benzyl-3-methoxy-4-(1H-pyrazol-4-yl) benzamide], the pIC50 against ROCK2 was 8.59; against ROCK1, 7.89.

Turning to `COc1cc(C(=O)N[C@@H](Cc2ccccc2)C(N)=O)ccc1-c1cn[nH]c1` [Example 115, (2S)-2-{[3-methoxy-4-(1H-pyrazol-4-yl)phenyl] formamido}-3-phenyl-propanamide], the pIC50 was 7.85 against ROCK2 and 7.43 on ROCK1.

Regarding `COc1cc(C(=O)NCc2ccccc2OC(F)(F)F)ccc1-c1cn[nH]c1` [Example 22, 3-methoxy-4-(1H-pyrazol-4-yl)-N-(2-(trifluoro-methoxy)benzyl) benzamide], the pIC50 was 7.22 at ROCK2 and 7.07 against ROCK1.

For `COc1cccc([C@@H](C)NC(=O)c2ccc(-c3c(C)n[nH]c3C)c(C)c2)c1` [Example 153, 4-(3,5-dimethyl-1H-pyrazol-4-yl)-N-[(1R)-1-(3-methoxyphenyl)ethyl]-3-methylbenzamide], the pIC50 against ROCK2 is 6.38; on ROCK1, under 5.70.

In the case of `NC[C@@H](NC(=O)c1ccc(-c2cn[nH]c2)c(OCCO)c1)c1ccccc1` [Example 258, N-[(15)-2-amino-1-phenylethyl]-3-(2-hydroxyethoxy)-4-(1H-pyrazol-4-yl)benzamide], the pIC50 against ROCK2 was 8.46; at ROCK1, 8.05.

As to `COc1ccc(F)c(C(C)NC(=O)c2ccc(-c3cn[nH]c3)cc2OC)c1` (stereo not drawn) [Example 228, N-[1-(2-fluoro-5-methoxyphenyl)ethyl]-2-methoxy-4-(1H-pyrazol-4-yl)benzamide], the pIC50 against ROCK2 is 8.52; against ROCK1 it was 7.90.

For `Cc1cc(C(=O)N[C@H](C)c2ccc(F)cc2)ccc1-c1cn[nH]c1` [Example 150, N-[(1R)-1-(4-fluorophenyl)ethyl]-3-methyl-4-(1H-pyrazol-4-yl)benzamide], the pIC50 at ROCK2 is 7.72; against ROCK1, 7.88.

For `COc1cc(C(=O)NCc2ccc(Cl)cc2Cl)ccc1-c1cn[nH]c1` [Example 93, N-[(2,4-dichlorophenyl)methyl]-3-methoxy-4-(1H-pyrazol-4-yl)benzamide], the pIC50 against ROCK2 is 7.56; against ROCK1 it was 7.00.

Regarding `COc1cc(C(=O)NCc2ccccc2F)ccc1-c1cn[nH]c1` [Example 25, N-(2-fluorobenzyl)-3-methoxy-4-(1H-pyrazol-4-yl)benzamide], the pIC50 against ROCK2 is 8.58; against ROCK1 it was 8.10.

As to `COc1ccc(F)c(C(C)NC(=O)c2ccc(-c3cn[nH]c3)c(OC)c2)c1` (stereo not drawn) [Example 140, N-[1-(2-fluoro-5-methoxyphenyl)ethyl]-3-methoxy-4-(1H-pyrazol-4-yl)benzamide], the pIC50 at ROCK2 is 9.08; on ROCK1 it was 8.47.

With `CC(O)c1cc(C(=O)NCc2c(F)cccc2Cl)ccc1-c1cn[nH]c1` (stereo not drawn) [Example 291, N-[(2-chloro-6-fluorophenyl)methyl]-3-(1-hydroxyethyl)-4-(1H-pyrazol-4-yl)benzamide], the pIC50 at ROCK2 was 6.98; against ROCK1, 6.86.
